Data reported in patent US20150105252A1, “SUBSTITUTED PYRAZOLES AS HERBICIDES” (E I DU PONT DE NEMOURS AND COMPANY, priority 2013, published 2015).

Key:
[1] = tested on: dayflower, VA; experiment: Test E preemergence; format: in vivo, Commelina virginica; details: 21 days, scale 0 to 100
Text: (§1) Seeds of plant species selected from bermudagrass (Cynodon dactylon), Surinam grass (Brachiaria decumbens), crabgrass, large (large crabgrass, Digitaria sanguinalis), crabgrass, naked (naked crabgrass, Digitaria nuda), foxtail, green (green foxtail, Setaria viridis), johnsongrass (Sorghum halepense), kochia (Kochia scoparia), morningglory (pitted morningglory, Ipomoea lacunosa), nutsedge, purple (purple nutsedge, Cyperus rotundus), ragweed (common ragweed, Ambrosia elation), mustard, black (black mustard, Brassica nigra), guineagrass (Panicum maximum), dallisgrass (Paspalum dilatatum), barnyardgrass (Echinochloa crus-galli), sandbur (southern sandbur, Cenchrus echinatus), sowthistle (common sowthistle, Sonchus oleraceous), ryegrass, Italian (Italian ryegrass, Lolium multiflorum), signalgrass (broadleaf signalgrass, Brachiaria platyphylla), dayflower, VA (Virginia (VA) dayflower, Commelina virginica), bluegrass (annual bluegrass, Poa annua), quackgrass (Elytrigia repens), mallow (common mallow, Malva sylvestris), buckwheat, wild (wild buckwheat, Polygonum convolvulus), leafy spurge (Euphorbia esula), common chickweed (Stellaria media), wild poinsettia (Euphorbia heterophylla), pigweed, palmer (palmer pigweed, Amaranthus palmeri), and pigweed (redroot pigweed, Amaranthus retroflexus) were planted into a blend of loam soil and sand and treated preemergence with test chemicals formulated in a non-phytotoxic solvent mixture which included a surfactant.
(§2) Treated plants and controls were maintained in a greenhouse for 21 days, after which time all species were compared to controls and visually evaluated. Plant response ratings, summarized in Table E, are based on a scale of 0 to 100 where 0 is no effect and 100 is complete control. A dash (-) response means no test result.

[2] = tested on: quackgrass; experiment: Test E preemergence; format: in vivo, Elytrigia repens; details: 21 days, scale 0 to 100
Text: as §1, §2

[3] = tested on: hairy beggarticks; experiment: Test F postemergence; format: in vivo, Bidens pilosa; details: scale 0 to 100
Text: Seeds of plant species selected from corn (Zea mays), soybean (Glycine max), velvetleaf (Abutilon theophrasti), lambsquarters (Chenopodium album), wild poinsettia (Euphorbia heterophylla), pigweed, palmer (palmer pigweed, Amaranthus palmeri), common waterhemp (Amaranthus rudis), surinam grass (Brachiaria decumbens), large crabgrass (Digitaria sanguinalis), crabgrass, Brazil (Brazilian crabgrass, Digitaria horizontalis), fall panicum (Panicum dichotomiflorum), giant foxtail (Setaria faberii), green foxtail (Setaria viridis), goosegrass (Eleusine indica), johnsongrass (Sorghum halepense), common ragweed (Ambrosia elation), barnyardgrass (Echinochloa crus-galli), southern sandbur (Cenchrus echinatus), arrowleaf sida (Sida rhombifolia), Italian ryegrass (Lolium multiflorum), dayflower, VA (Virginia (VA) dayflower, Commelina virginica), field bindweed (Convolvulus arvensis), cocklebur (common cocklebur, Xanthium strumarium), morningglory (Ipomoea coccinea), nightshade (eastern black nightshade, Solanum ptycanthum), kochia (Kochia scoparia), yellow nutsedge (Cyperus esculentus), and hairy beggarticks (Bidens pilosa), were planted into a silt loam soil and treated preemergence with test chemicals formulated in a non-phytotoxic solvent mixture which included a surfactant.
At the same time, plants from these crop and weed species and also horseweed (Canada horseweed, Conyza canadensis), smartweed (ladysthumb smartweed, Polygonum persicaria), waterhemp_RES1, (ALS & Triazine resistant common waterhemp, Amaranthus rudis), and waterhemp_RES2, (ALS & HPPD resistant common waterhemp, Amaranthus rudis) were treated with postemergence applications of test chemicals formulated in the same manner. Plants ranged in height from 2 to 18 cm for postemergence treatments (1- to 4-leaf stage). Treated plants and controls were maintained in a greenhouse for 14 to 21 days, after which time all species were compared to controls and visually evaluated. Plant response ratings, summarized in Table F, are based on a scale of 0 to 100 where 0 is no effect and 100 is complete control. A dash (-) response means no test result.

[4] = tested on: guineagrass; experiment: Test E preemergence; format: in vivo, Panicum maximum; details: 21 days, scale 0 to 100
Text: as §1, §2

[5] = tested on: mallow; experiment: Test E preemergence; format: in vivo, Malva sylvestris; details: 21 days, scale 0 to 100
Text: as §1, §2

[6] = tested on: dallisgrass; experiment: Test E preemergence; format: in vivo, Paspalum dilatatum; details: 21 days, scale 0 to 100
Text: as §1, §2

[7] = tested on: morningglory; experiment: Test E preemergence; format: in vivo, Ipomoea lacunosa; details: 21 days, scale 0 to 100
Text: as §1, §2

SMILES | Plant response rating, Dayflower, VA ([1]; 16 g ai/ha) | Plant response rating, Dayflower, VA ([1]; 31 g ai/ha) | Plant response rating, Dayflower, VA ([1]; 62 g ai/ha) | Plant response rating, Dayflower, VA ([1]; 125 g ai/ha) | Plant response rating, Dayflower, VA ([1]; 250 g ai/ha) | Plant response rating, Quackgrass ([2]; 16 g ai/ha) | Plant response rating, Quackgrass ([2]; 31 g ai/ha) | Plant response rating, Quackgrass ([2]; 62 g ai/ha) | Plant response rating, Guineagrass ([4]; 16 g ai/ha) | Plant response rating, Guineagrass ([4]; 31 g ai/ha) | Plant response rating, Guineagrass ([4]; 62 g ai/ha) | Plant response rating, Mallow ([5]; 16 g ai/ha) | Plant response rating, Mallow ([5]; 31 g ai/ha) | Plant response rating, Mallow ([5]; 62 g ai/ha) | Plant response rating, Dallisgrass ([6]; 16 g ai/ha) | Plant response rating, Dallisgrass ([6]; 31 g ai/ha) | Plant response rating, Dallisgrass ([6]; 62 g ai/ha) | Plant response rating, Morningglory ([7]; 16 g ai/ha) | Plant response rating, Morningglory ([7]; 31 g ai/ha) | Plant response rating, Morningglory ([7]; 62 g ai/ha) | further results
CCc1cc(C(=O)NCC(F)(F)F)nn1Cc1ccnc(C(F)(F)F)c1 [Compound 78, 5-ethyl-N-(2,2,2-trifluoroethyl)-1-[[(2-trifluoromethyl)-4-pyridinyl]methyl]-1H-pyrazole-3-carboxamide] | 85 | 100 | 100 | 100 | 100 | 60 | 95 | 100 | 90 | 100 | 100 | 100 | 100 | 100 | 90 | 100 | 100 | 50 | 70 | 90 | Plant response rating, Quackgrass ([2]; 125 g ai/ha): 100; Plant response rating, Quackgrass ([2]; 250 g ai/ha): 100; Plant response rating, Hairy Beggarticks ([3]; Postemergence, 31 g ai/ha): 30; Plant response rating, Hairy Beggarticks ([3]; Postemergence, 125 g ai/ha): 50; Plant response rating, Hairy Beggarticks ([3]; Postemergence, 250 g ai/ha): 75; Plant response rating, Hairy Beggarticks ([3]; postemergence, 62 g ai/ha): 40; Plant response rating, Hairy Beggarticks ([3]; postemergence, 500 g ai/ha): 90; Plant response rating, Guineagrass ([4]; 125 g ai/ha): 100; Plant response rating, Guineagrass ([4]; 250 g ai/ha): 100; Plant response rating, Mallow ([5]; 125 g ai/ha): 100; Plant response rating, Mallow ([5]; 250 g ai/ha): 100; Plant response rating, Dallisgrass ([6]; 125 g ai/ha): 100; Plant response rating, Dallisgrass ([6]; 250 g ai/ha): 100; Plant response rating, Morningglory ([7]; 125 g ai/ha): 100; Plant response rating, Morningglory ([7]; 250 g ai/ha): 100
CCc1cc(C(=O)NC(C)C)nn1Cc1ccnc(C(F)(F)F)c1 [Compound 103] | 80 | 98 | 100 | 100 | 100 | 95 | 98 | 100 | 100 | 100 | 100 | 95 | 98 | 98 | 90 | 100 | 100 | 95 | 100 | 100 | Plant response rating, Quackgrass ([2]; 125 g ai/ha): 100; Plant response rating, Quackgrass ([2]; 250 g ai/ha): 100; Plant response rating, Guineagrass ([4]; 125 g ai/ha): 100; Plant response rating, Guineagrass ([4]; 250 g ai/ha): 100; Plant response rating, Mallow ([5]; 125 g ai/ha): 100; Plant response rating, Mallow ([5]; 250 g ai/ha): 100; Plant response rating, Dallisgrass ([6]; 125 g ai/ha): 100; Plant response rating, Dallisgrass ([6]; 250 g ai/ha): 100; Plant response rating, Morningglory ([7]; 125 g ai/ha): 100; Plant response rating, Morningglory ([7]; 250 g ai/ha): 100
CCOc1cc(C(=O)NCC(F)(F)F)nn1Cc1ccnc(C(F)(F)F)c1 [Compound 104] | 98 | 98 | 100 | 100 | 100 | 75 | 95 | 95 | 100 | 100 | 100 | 40 | 98 | 100 | 95 | 98 | 100 | 98 | 98 | 100 | Plant response rating, Quackgrass ([2]; 125 g ai/ha): 98; Plant response rating, Quackgrass ([2]; 250 g ai/ha): 100; Plant response rating, Hairy Beggarticks ([3]; Postemergence, 31 g ai/ha): 50; Plant response rating, Hairy Beggarticks ([3]; Postemergence, 125 g ai/ha): 60; Plant response rating, Hairy Beggarticks ([3]; Postemergence, 250 g ai/ha): 85; Plant response rating, Hairy Beggarticks ([3]; postemergence, 62 g ai/ha): 50; Plant response rating, Hairy Beggarticks ([3]; postemergence, 500 g ai/ha): 90; Plant response rating, Guineagrass ([4]; 125 g ai/ha): 100; Plant response rating, Guineagrass ([4]; 250 g ai/ha): 100; Plant response rating, Mallow ([5]; 125 g ai/ha): 98; Plant response rating, Mallow ([5]; 250 g ai/ha): 100; Plant response rating, Dallisgrass ([6]; 125 g ai/ha): 100; Plant response rating, Dallisgrass ([6]; 250 g ai/ha): 100; Plant response rating, Morningglory ([7]; 125 g ai/ha): 100; Plant response rating, Morningglory ([7]; 250 g ai/ha): 100
CCOc1cc(C(=O)NC(C)C)nn1Cc1ccnc(C(F)(F)F)c1 [Compound 188] |  |  |  |  |  |  |  |  |  |  |  |  |  |  |  |  |  |  |  |  | Plant response rating, Hairy Beggarticks ([3]; Postemergence, 31 g ai/ha): 50; Plant response rating, Hairy Beggarticks ([3]; Postemergence, 125 g ai/ha): 50; Plant response rating, Hairy Beggarticks ([3]; Postemergence, 250 g ai/ha): 60; Plant response rating, Hairy Beggarticks ([3]; postemergence, 62 g ai/ha): 60; Plant response rating, Hairy Beggarticks ([3]; postemergence, 500 g ai/ha): 75
CCOc1cc(C(=O)NC2CC2)nn1Cc1ccnc(C(F)(F)F)c1 [Compound 189] | 90 | 100 | 100 |  |  | 35 | 75 | 100 | 100 | 100 | 100 | 100 | 98 | 100 | 75 | 100 | 100 | 90 | 100 | 100 | Plant response rating, Dayflower, VA ([1]; 4 g ai/ha): 0; Plant response rating, Dayflower, VA ([1]; 8 g ai/ha): 30; Plant response rating, Quackgrass ([2]; 4 g ai/ha): 0; Plant response rating, Quackgrass ([2]; 8 g ai/ha): 0; Plant response rating, Guineagrass ([4]; 4 g ai/ha): 30; Plant response rating, Guineagrass ([4]; 8 g ai/ha): 75; Plant response rating, Mallow ([5]; 4 g ai/ha): 90; Plant response rating, Mallow ([5]; 8 g ai/ha): 65; Plant response rating, Dallisgrass ([6]; 4 g ai/ha): 0; Plant response rating, Dallisgrass ([6]; 8 g ai/ha): 5; Plant response rating, Morningglory ([7]; 4 g ai/ha): 0; Plant response rating, Morningglory ([7]; 8 g ai/ha): 30
